Counter-ions that a name gives are not always drawn.

In the first assay the target is AaDOP2 (Aedes aegypti, UniProt H6D5H2). Nature of the assay: AaDOP2 antagonist screen of the LOPAC1280 library (HEK-CRELuc-Aadop2 cells, luminescence). It counts as cell-based.
Chain of AaDOP2 (H6D5H2 1-476): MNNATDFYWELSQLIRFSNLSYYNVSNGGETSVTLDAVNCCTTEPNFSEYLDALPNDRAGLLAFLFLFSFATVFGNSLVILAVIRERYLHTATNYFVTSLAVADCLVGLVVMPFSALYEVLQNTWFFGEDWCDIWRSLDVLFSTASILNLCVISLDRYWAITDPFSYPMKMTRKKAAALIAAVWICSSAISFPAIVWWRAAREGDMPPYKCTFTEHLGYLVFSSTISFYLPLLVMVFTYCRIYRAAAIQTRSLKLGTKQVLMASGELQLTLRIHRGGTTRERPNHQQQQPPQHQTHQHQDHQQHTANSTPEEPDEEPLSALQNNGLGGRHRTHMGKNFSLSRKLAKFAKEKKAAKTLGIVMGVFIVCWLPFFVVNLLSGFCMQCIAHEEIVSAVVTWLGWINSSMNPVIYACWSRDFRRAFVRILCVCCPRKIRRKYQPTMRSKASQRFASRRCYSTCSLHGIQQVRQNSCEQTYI
Details: not given
As for `Cc1ccc(C(=O)Nc2ccc(S(=O)(=O)O)c3cc(S(=O)(=O)O)cc(S(=O)(=O)O)c23)cc1NC(=O)c1cccc(NC(=O)Nc2cccc(C(=O)Nc3cc(C(=O)Nc4ccc(S(=O)(=O)O)c5cc(S(=O)(=O)O)cc(S(=O)(=O)O)c45)ccc3C)c2)c1` [Compound 1135, Suramin hexasodium], the “Compound effect (percent receptor signaling in presence of test compound, relative lux units relative to the SCH23390 control)” value amounted to 112.

For `Nc1ncnc2c1ncn2C1CCCO1` (centres unmarked) [Compound 1136, SQ 22536], the “Compound effect (percent receptor signaling in presence of test compound, relative lux units relative to the SCH23390 control)” value is recorded as 120.

With `C[C@H](O)C(=O)C1=Nc2c(nc(N)[nH]c2=O)NC1` [Compound 1137, Sepiapterin], the “Compound effect (percent receptor signaling in presence of test compound, relative lux units relative to the SCH23390 control)” value is on record as 110.

Regarding `Cl.Cn1ccc2cc3c(cc21)CCN3C(=O)Nc1cccnc1` [Compound 1141, SB 206553 hydrochloride], the “Compound effect (percent receptor signaling in presence of test compound, relative lux units relative to the SCH23390 control)” value was 73.

Turning to `N[C@@H](Cc1c[nH]c2ccccc12)C(=O)O` [Compound 1143, L-Tryptophan], the “Compound effect (percent receptor signaling in presence of test compound, relative lux units relative to the SCH23390 control)” value is given as 114.

Regarding `COc1ccc(/C=C/C(=O)Nc2ccccc2C(=O)O)cc1OC` [Compound 1144, Tranilast], the “Compound effect (percent receptor signaling in presence of test compound, relative lux units relative to the SCH23390 control)” value was 73.

Consider `CCN(CC)CCNC(=O)c1cc(S(C)(=O)=O)ccc1OC` [Compound 1145, Tiapride hydrochloride], for which the “Compound effect (percent receptor signaling in presence of test compound, relative lux units relative to the SCH23390 control)” value was 96.

For `NCCS(=O)(=O)O` [Compound 1146, Taurine], the “Compound effect (percent receptor signaling in presence of test compound, relative lux units relative to the SCH23390 control)” value stood at 101.

For the compound `CCCCNC(=O)NS(=O)(=O)c1ccc(C)cc1` [Compound 1148, Tolbutamide], the “Compound effect (percent receptor signaling in presence of test compound, relative lux units relative to the SCH23390 control)” value worked out at 112.

Consider `Clc1cnc(Oc2ccc(Oc3ncc(Cl)cc3Cl)cc2)c(Cl)c1` [Compound 1150, TCPOBOP], for which the “Compound effect (percent receptor signaling in presence of test compound, relative lux units relative to the SCH23390 control)” value is 91.

Consider `CC(C)NP(=O)(NC(C)C)OP(=O)(NC(C)C)NC(C)C` [Compound 1151, Tetraisopropyl pyrophosphoramide], for which the “Compound effect (percent receptor signaling in presence of test compound, relative lux units relative to the SCH23390 control)” value turned out to be 111.

`c1ccc(C2CN3CCSC3=N2)cc1` (centres unmarked) [Compound 1152, Tetramisole hydrochloride]: the “Compound effect (percent receptor signaling in presence of test compound, relative lux units relative to the SCH23390 control)” value came out at 118.

With `OC(CCN1CCCCC1)(c1ccccc1)C1CCCCC1` (centres unmarked) [Compound 1153, Trihexyphenidyl hydrochloride], the “Compound effect (percent receptor signaling in presence of test compound, relative lux units relative to the SCH23390 control)” value is given as 92.

For `Cn1c(=O)c2[nH]cnc2n(C)c1=O` [Compound 1154, Theophylline], the “Compound effect (percent receptor signaling in presence of test compound, relative lux units relative to the SCH23390 control)” value came to 98.

`NC/C=C/C(=O)O` [Compound 1155, (E)-4-amino-2-butenoic acid]: the “Compound effect (percent receptor signaling in presence of test compound, relative lux units relative to the SCH23390 control)” value was found to be 126.

For the compound `CCCCCCCCCCCCCCSCC(=O)O` [Compound 1156, Tetradecylthioacetic acid], the “Compound effect (percent receptor signaling in presence of test compound, relative lux units relative to the SCH23390 control)” value was 101.

In the case of `COc1cc2c(cc1OC)-c1c/c(=N\c3c(C)cc(C)cc3C)n(C)c(=O)n1CC2` [Compound 1157, Trequinsin hydrochloride], the “Compound effect (percent receptor signaling in presence of test compound, relative lux units relative to the SCH23390 control)” value came to 133.

As for `CC(C)(C)c1cc(/C=C(\C#N)C(N)=S)cc(C(C)(C)C)c1O` [Compound 1158, Tyrphostin AG 879], the “Compound effect (percent receptor signaling in presence of test compound, relative lux units relative to the SCH23390 control)” value came to 33.

In the case of `CC[N+](CC)(CC)CC` [Compound 1159, Tetraethylammonium chloride], the “Compound effect (percent receptor signaling in presence of test compound, relative lux units relative to the SCH23390 control)” value stood at 108.

Consider `Cc1ccc(S(=O)(=O)NC(=O)NN2CCCCCC2)cc1` [Compound 1160, Tolazamide], for which the “Compound effect (percent receptor signaling in presence of test compound, relative lux units relative to the SCH23390 control)” value was determined as 107.

In the case of `CN(C)CCCN1c2ccccc2Sc2ccc(C(F)(F)F)cc21` [Compound 1163, Triflupromazine hydrochloride], the “Compound effect (percent receptor signaling in presence of test compound, relative lux units relative to the SCH23390 control)” value was found to be 12.

Take `CC(CN(C)C)CN1c2ccccc2CCc2ccccc21` (centres unmarked) [Compound 1164, Trimipramine maleate]: the “Compound effect (percent receptor signaling in presence of test compound, relative lux units relative to the SCH23390 control)” value amounted to 13.

`N#C/C(=C\c1ccc(O)c(O)c1)C(=O)NCc1ccccc1` [Compound 1165, Tyrphostin AG 490]: the “Compound effect (percent receptor signaling in presence of test compound, relative lux units relative to the SCH23390 control)” value was 96.

With `COc1cc2nc(N3CCN(C(=O)OCc4ccccc4)[C@H](C(=O)NC(C)(C)C)C3)nc(N)c2cc1OC` [Compound 1167, L-765,314], the “Compound effect (percent receptor signaling in presence of test compound, relative lux units relative to the SCH23390 control)” value is given as 112.

Consider `Nc1nc(N)c2nc(-c3ccccc3)c(N)nc2n1` [Compound 1168, Triamterene], for which the “Compound effect (percent receptor signaling in presence of test compound, relative lux units relative to the SCH23390 control)” value is 115.

Regarding `COc1cc2ncnc(Nc3cccc(Cl)c3)c2cc1OC` [Compound 1169, Tyrphostin AG 1478], the “Compound effect (percent receptor signaling in presence of test compound, relative lux units relative to the SCH23390 control)” value was found to be 88.

Consider `c1ccc2c(c1)CCCC2C1=NCCN1` (centres unmarked) [Compound 1170, Tetrahydrozoline hydrochloride], for which the “Compound effect (percent receptor signaling in presence of test compound, relative lux units relative to the SCH23390 control)” value was 102.

As for `N#C/C(=C\c1ccc(O)c(O)c1)C(=O)Nc1ccccc1` [Compound 1171, Tyrphostin AG 494], the “Compound effect (percent receptor signaling in presence of test compound, relative lux units relative to the SCH23390 control)” value is listed as 83.

As for `C[C@@H](NC(=O)/C(C#N)=C/c1ccc(O)c(O)c1)c1ccccc1` [Compound 1174, Tyrphostin AG 527], the “Compound effect (percent receptor signaling in presence of test compound, relative lux units relative to the SCH23390 control)” value is given as 81.

As for `Cn1cnc2c1c(=O)[nH]c(=O)n2C` [Compound 1175, Theobromine], the “Compound effect (percent receptor signaling in presence of test compound, relative lux units relative to the SCH23390 control)” value was determined as 110.

Turning to `N#C/C(=C\c1ccc(O)c(O)c1)C(=O)N1CCc2ccccc21` [Compound 1177, Tyrphostin AG 528], the “Compound effect (percent receptor signaling in presence of test compound, relative lux units relative to the SCH23390 control)” value was 78.

As to `COc1cc2nc(N3CCN(C(=O)C4CCCO4)CC3)nc(N)c2cc1OC` (centres unmarked) [Compound 1178, Terazosin hydrochloride], the “Compound effect (percent receptor signaling in presence of test compound, relative lux units relative to the SCH23390 control)” value stood at 107.

With `N#C/C(=C\c1ccc(O)c(O)c1)C(=O)NCCCNC(=O)/C(C#N)=C/c1ccc(O)c(O)c1` [Compound 1179, Tyrphostin AG 537], the “Compound effect (percent receptor signaling in presence of test compound, relative lux units relative to the SCH23390 control)” value stood at 112.

Turning to `N#C/C(=C\c1ccc(O)c(O)c1)C(=O)NCCCc1ccccc1` [Compound 1180, Tyrphostin AG 555], the “Compound effect (percent receptor signaling in presence of test compound, relative lux units relative to the SCH23390 control)” value came to 77.

With `N#C/C(=C\c1ccc(O)c(O)c1)C(=O)NCCc1ccccc1` [Compound 1181, Tyrphostin AG 698], the “Compound effect (percent receptor signaling in presence of test compound, relative lux units relative to the SCH23390 control)” value is 82.

In the case of `N#C/C(=C\c1c[nH]c2ccccc12)C(=O)c1ccc(O)c(O)c1` [Compound 1182, Tyrphostin AG 808], the “Compound effect (percent receptor signaling in presence of test compound, relative lux units relative to the SCH23390 control)” value was found to be 101.

As to `CC(C)(C)NCC(O)c1ccccc1Cl` (centres unmarked) [Compound 1187, Tulobuterol hydrochloride], the “Compound effect (percent receptor signaling in presence of test compound, relative lux units relative to the SCH23390 control)” value stood at 104.

In the case of `O=c1n(CCCN2CCN(c3cccc(Cl)c3)CC2)nc2ccccn12` [Compound 1188, Trazodone hydrochloride], the “Compound effect (percent receptor signaling in presence of test compound, relative lux units relative to the SCH23390 control)” value is recorded as 97.

Take `COc1cc(C=C(C#N)C#N)cc(O)c1O` [Compound 1189, Tyrphostin AG 34]: the “Compound effect (percent receptor signaling in presence of test compound, relative lux units relative to the SCH23390 control)” value stood at 74.

Staying with this assay, now noted: 10 µM compound, 300 nM dopamine, 2 hr.
As to `CN1CCN(CC/C=C2/c3ccccc3Sc3ccc(S(=O)(=O)N(C)C)cc32)CC1.Cl` [Compound 1147, Thiothixene hydrochloride], the “% of the SCH23390 effect (percent inhibition of receptor response relative to the SCH23390 control)” value is listed as 86%.

The assay is the same for the next values; noted with them: 10 µM compound, 300 nM dopamine, 2 hr; hit = compound effect <20.
Consider `COc1cc2c(cc1OC)[C@@H](c1ccccc1)CN(C)CC2.O=C(O)/C=C\C(=O)O` [Compound 1138, R(-)-SCH-12679 maleate], for which the “Compound effect (percent receptor signaling in presence of test compound, relative lux units relative to the SCH23390 control)” value was found to be 36%.

With `CCN(CC)CCOC(=O)c1cc(Cl)c(N)cc1OC.Cl` [Compound 1140, SDZ-205,557 hydrochloride], the “Compound effect (percent receptor signaling in presence of test compound, relative lux units relative to the SCH23390 control)” value is 96%.

For the compound `CN1CCN(CC/C=C2/c3ccccc3Sc3ccc(S(=O)(=O)N(C)C)cc32)CC1.Cl` [Compound 1147, Thiothixene hydrochloride], the “Compound effect (percent receptor signaling in presence of test compound, relative lux units relative to the SCH23390 control)” value is 14%.

Take `CCN(CC)C(=S)SSC(=S)N(CC)CC` [Compound 1149, Tetraethylthiuram disulfide]: the “Compound effect (percent receptor signaling in presence of test compound, relative lux units relative to the SCH23390 control)” value was determined as 89%.

Regarding `CC(C)(C)NCC(O)c1cc(O)cc(O)c1.CC(C)(C)NCC(O)c1cc(O)cc(O)c1.O=S(=O)(O)O` (centres unmarked) [Compound 1161, Terbutaline hemisulfate], the “Compound effect (percent receptor signaling in presence of test compound, relative lux units relative to the SCH23390 control)” value was 119%.

With `C/C(=C\c1ccc(C(=O)O)cc1)c1ccc2c(c1)C(C)(C)CCC2(C)C` [Compound 1166, TTNPB], the “Compound effect (percent receptor signaling in presence of test compound, relative lux units relative to the SCH23390 control)” value is 98%.

Regarding `Cc1ccc(S(=O)(=O)N[C@@H](Cc2ccccc2)C(=O)CCl)cc1` [Compound 1172, N-p-Tosyl-L-phenylalanine chloromethyl ketone], the “Compound effect (percent receptor signaling in presence of test compound, relative lux units relative to the SCH23390 control)” value is 83%.

On to `CC(O)C(O)[C@H]1CNc2nc(N)[nH]c(=O)c2N1.Cl.Cl` (stereo partly drawn) [Compound 1173, (6R)-5,6,7,8-Tetrahydro-L-biopterin hydrochloride], for which the “Compound effect (percent receptor signaling in presence of test compound, relative lux units relative to the SCH23390 control)” value was 109%.

Still in this assay, the particulars now being: read-out: % of the SCH23390 effect (percent inhibition of receptor response relative to the SCH23390 control).
As to `CN(C)CCCN1c2ccccc2Sc2ccc(C(F)(F)F)cc21` [Compound 1163, Triflupromazine hydrochloride], the inhibition at 10 µM came to 88%.

As to `CC(CN(C)C)CN1c2ccccc2CCc2ccccc21` (centres unmarked) [Compound 1164, Trimipramine maleate], the inhibition at 10 µM turned out to be 87%.

One may read the inhibition as the percentage by which the read-out fell short of the control.
